Measured values published in US6174921A, “Antitumor compositions and methods of treatment” (priority 1999, dated 2001).
Converted amounts (≈) assume the structure as drawn.

Legend:
CCRF-CEM cells = assay: In vitro growth inhibition / cytotoxicity against CCRF-CEM human leukemia cells; format: cell-based; conditions: 72 hours of incubation, read-out: IC50 (concentration required for 50% inhibition of growth)
Experimental: The in vitro data were obtained using CCRF-CEM cells, a human leukemia cell line. Foley et al., Cancer, 18:522 (1965). These cells were grown using standard techniques. See, e.g., G. B. Grindey, et al., Journal of Molecular Pharmacoloy, 16:601 (1979). Dose-response curves were generated for various compounds to determine the concentration required for 50% inhibition of growth (IC50). Cluster plates were prepared in duplicate with the compound at various concentrations. Test compounds were dissolved initially in DMSO at a concentration of 4 mg/ml and further diluted with solvent to the desired concentration. Cells in Roswell Park Memorial Institute 1640 media supplemented with 10% dialyzed fetal bovine serum, and 25 mM HEPES buffer were added to the well at a final concentration of 4.8×10^4 cells/well in a total volume of 2.0 ml. After 72 hours of incubation (95% air, 5% CO2), cell numbers were determined on a ZBI Coulter counter. Cell number for indicated controls at the end of incubation was usually (4-6)×10^5 cells/well. Cell viability was also measured by staining with 3-[4,5-dimethylthiazol-2-yl]-2,5-diphenyl-tetrazolium bromide (MTT) using standard techniques. R. I. Freshney, Culture of Animal Cells: A Manual of Basic Technique, 253-254 (2d ed. 1987).
Column 1 refers to the example number of the compound tested; Column 2 depicts the in vitro cytoxicity against CCRF-CEM cells by relating the concentration of the test compound required for 50% inhibition of growth (IC50) of the cells in the well.

6C3HED lymphosarcoma = assay: In vivo antitumor activity in C3H mice bearing 6C3HED lymphosarcoma allograft (Gardner lymphosarcoma), oral
From the text: A second tumor model employed C3H mice bearing the widely used allograft 6C3HED lymphosarcoma, also known as the Gardner lymphosarcoma (GLS). The 6C3HED lymphosarcoma was obtained from the Division of Cancer Treatment, National Cancer Institute, Tumor Bank, maintained at E. G. and G. Mason Research (Worcester, Mass.).
First passage tumors were stored in liquid nitrogen, using standard techniques. The transplanted tumor was reestablished from the Tumor Bank every six months or as needed. The tumor was maintained by serial passage twice weekly in the host mice.
In the procedures utilized here, the tumor was removed from passage animals and minced into 1- to 3-mm cubic fragments using sterile techniques. Tumor pieces were checked for sterility using both Antibiotic Medium 1 and Brain Heart Infusion (Difco, Detroit, Mich.). The xenograft tumor pieces were implanted into the recipient CD1 Nu/Nu mice subcutaneously in an axillary site by trochar. The allograft 6C3HED tumor pieces were implanted into the recipient C3H mice in an analogous fashion.
Drug therapy on the appropriate schedule was initiated seven days after tumor implantation for the HXGC3 xenograft and the day after tumor implantation for the 6C3HED allograft. The compound being tested was mixed with 2.5% Emulphor EL620 from GAF Corporation (1:40 dilution in 0.9% saline). The total dosage volume for each administration was 0.5 ml. All animals were weighed at the beginning and end of administration of the subject compounds. Food and water were provided ad libitum.
Each control group and each dosage level of the treated groups consisted of 9 or 10 mice selected at random from the pool of implanted animals. The formulations were administered orally by gavage with the use of an 18-gauge needle. Compounds were dosed daily for 10 days for the studies using the human tumor xenografts and 8 days for the studies using the allograft.
The xenograft tumor was measured five days after treatment ended with two dimensional measurements (width and length) of the tumor taken using digital electronic calipers interfaced to a microcomputer. J. F. Worzalla, et al., Investigational New Drugs, 8:241-251 (1990). The allograft was measured in a like manner the day after the dosing schedule ended. Tumor weights were calculated from these measurements using the following formula: [formula]
At least one control group of an equal number of mice was treated with the same volume of 2.5% Emulphor only. The percent inhibition is determined by subtracting the ratio of the mean tumor size of the test group relative to the control group from one and multiplying the result by 100.
The results of several experiments in mice bearing the HXGC3 human colon adenocarcinoma and the 6C3HED lymphosarcoma when the Formula I compounds were administered orally are provided in Table II. In the table, Column 1 refers to the example number of the compound tested; Column 2 describes the particular human tumor xenograft or mouse allograft being studied; Column 3 gives the dosage level of the compound of Formula I in milligrams per kilogram of body weight; Column 4 describes the percent inhibition of tumor growth; and Column 5 tallies the number of mice which died during the course of the experiment relative to the total number of animals in the group.

[1] = tested on: HXGC3 human colon adenocarcinoma xenograft; assay: In vivo antitumor activity in CD1 Nu/Nu mice bearing HXGC3 human colon adenocarcinoma xenograft, oral; conditions: daily for 10 days
Experimental: One of the tumor models used for showing the anti-neoplastic activity of the sulfonylureas of this invention was the human colon xenograft HXGC3. […] This tumor was obtained from St. Jude's Children's Research Hospital and has been widely used as a human tumor model.
The xenograft tumor was measured five days after treatment ended with two dimensional measurements (width and length) of the tumor taken using digital electronic calipers interfaced to a microcomputer. […] Tumor weights were calculated from these measurements using the following formula: [formula]

[2] = 6C3HED, 1200 mg/kg, oral, daily for 8 days, second entry of Example 1

Structure (SMILES): C=Cc1ccc(S(=O)(=O)NC(=O)Nc2ccc(Cl)cc2)cc1 [Example 1, N-[[(4-chlorophenyl)amino]carbonyl]-4-(ethenyl)benzenesulfonamide]
- IC50 (CCRF-CEM cells): 19.8 µg/mL (≈ 58.8 µM)
- Toxic/Total (mice which died / total in group) (6C3HED lymphosarcoma; 6C3HED, 37.5 mg/kg, oral, daily for 8 days, second entry of Example 1): 0/10
- Toxic/Total (mice which died / total in group) (6C3HED lymphosarcoma; 6C3HED, 75 mg/kg, oral, daily for 8 days, second entry of Example 1): 0/10
- Toxic/Total (mice which died / total in group) (6C3HED lymphosarcoma; 6C3HED, 150 mg/kg, oral, daily for 8 days, first entry of Example 1): 0/10
- Toxic/Total (mice which died / total in group) (6C3HED lymphosarcoma; 6C3HED, 150 mg/kg, oral, daily for 8 days, second entry of Example 1): 0/10
- Toxic/Total (mice which died / total in group) (6C3HED lymphosarcoma; 6C3HED, 300 mg/kg, oral, daily for 8 days, first entry of Example 1): 1/10
- Toxic/Total (mice which died / total in group) (6C3HED lymphosarcoma; 6C3HED, 300 mg/kg, oral, daily for 8 days, second entry of Example 1): 1/10
- Toxic/Total (mice which died / total in group) (6C3HED lymphosarcoma; 6C3HED, 600 mg/kg, oral, daily for 8 days, second entry of Example 1): 2/10
- Percent Inhibition of tumor growth (6C3HED lymphosarcoma; [2]): Toxic
- Toxic/Total (mice which died / total in group) (6C3HED lymphosarcoma; [2]): 10/10
- Percent Inhibition of tumor growth (6C3HED lymphosarcoma; po, 37.5 mg/kg, 192 h): 34%
- Percent Inhibition of tumor growth (6C3HED lymphosarcoma; po, 75 mg/kg, 192 h): 66%
- Percent Inhibition of tumor growth (6C3HED lymphosarcoma; po, 600 mg/kg, 192 h): 100%

Structure (SMILES): C=Cc1ccc(S(=O)(=O)NC(=O)Nc2ccc(Cl)c(Cl)c2)cc1 [Example 2, N-[[(3,4-dichlorophenyl)amino]carbonyl]-4-(ethenyl)benzenesulfonamide]
- IC50 (CCRF-CEM cells): 9.3 µg/mL (≈ 25.1 µM)
- Percent Inhibition of tumor growth ([1]; 150 mg/kg): 93%
- Toxic/Total (mice which died / total in group) ([1]; 150 mg/kg): 0/7
- Percent Inhibition of tumor growth ([1]; 300 mg/kg): 97%
- Toxic/Total (mice which died / total in group) ([1]; 300 mg/kg): 1/7

Structure (SMILES): C=Cc1cccc(S(=O)(=O)NC(=O)Nc2ccc(Cl)cc2)c1 [Example 3, N-[[(4-chlorophenyl)amino]carbonyl]-3-(ethenyl)benzenesulfonamide]
- IC50 (CCRF-CEM cells): 14.4 µg/mL (≈ 42.8 µM)
- Toxic/Total (mice which died / total in group) (6C3HED lymphosarcoma; 6C3HED, 150 mg/kg, oral, daily for 8 days, entry of Example 3): 0/10
- Toxic/Total (mice which died / total in group) (6C3HED lymphosarcoma; 6C3HED, 300 mg/kg, oral, daily for 8 days, entry of Example 3): 0/10
- Percent Inhibition of tumor growth (6C3HED lymphosarcoma; po, 150 mg/kg, 192 h): 60%
- Percent Inhibition of tumor growth (6C3HED lymphosarcoma; po, 300 mg/kg, 192 h): 83%
